“And” between values parts separate entries of the source, which are not always exact repeats. Equal values may be shown once. Read-outs that look alike come from different tables or passages of the source.
Assays:
[1] = Plasma pharmacokinetics of pomalidomide and circulating metabolites by radiochromatography (metabolite profiling); type: in vivo, human; design: key to Plasma (% AUC relative to TRA): ND: not detected; D: detected by MS, but at concentrations too low to accurately quantify by radiochromatography; AUC0–24 / AUC0−∞: concentration or dose not given beside the values; settings: for Plasma (% AUC relative to TRA): AUC0–24 (unchanged drug or metabolite)/AUC0–24 (TRA) * 100 %; for AUC/AUCTRA: plasma exposure relative to total radioactivity; for AUC0–24 / AUC0−∞ / C max / t ½ / T max: plasma, radiochromatography; for AUC0–24 / AUC0−∞ / C max / t ½: geometric mean (%CV); for T max: median and range
Method: Individual plasma samples collected from all subjects at 1, 2.5, 4, 6, 10, 12 and 24 h post-dose were analyzed for metabolite profiling. Samples were extracted with acetonitrile, the supernatant was removed, and the pellet was washed with 0.1 % formic acid in water and extracted again with acetonitrile. The combined supernatants were adjusted to 15 or 25 mL by adding acetonitrile then evaporated to dryness under a stream of nitrogen. The residues were re-suspended in 0.1 % formic acid in water, assayed for extraction recovery and analyzed for metabolite profiling. A control plasma sample spiked with [^14C]pomalidomide was extracted in a similar manner to determine the extraction efficiency and stability of [^14C]pomalidomide.
(§1) HPLC analysis for metabolite profiling (HPLC Method 1) was performed using a Waters 2695 Alliance Separation Module (Waters Corp., Milford, MA) with the autosampler set to 4 °C. [^14C]Pomalidomide and metabolites were separated using an ACE C18 column (150 × 4.6 mm, 3 μm; Advanced Chromatography Technologies, Aberdeen, Scotland) equipped with an ACE C18 guard column (10 × 3 mm, 3 μm). The mobile phases used were 25 mM ammonium acetate in water: pH 5.5 with formic acid (mobile phase A) and methanol (mobile phase B). The column temperature was 30 °C, and the flow rate was 0.7 mL/min. The linear gradient was delivered as follows: 0–2 min 100 % A; 2–38 min to 64 % A; 38–44 min to 0 % A; 44–48 min hold at 0 % A; return to initial conditions over 2 min.
(§2) Radioactivity profiles for plasma and excreta were determined by collecting the column eluate into 96-well Deepwell LumaPlates™ at a rate of 0.25 min/fraction. The plates were dried and the radioactivity in each well determined using a PerkinElmer TopCount® NXT™ Microplate Scintillation Counter. HPLC radiochromatograms were reconstructed using LC-ARC data handling software.
For pomalidomide and metabolite concentrations in plasma based on metabolite profiling data, pharmacokinetic data were generated by non-compartmental analysis of plasma versus time profiles using WinNonlin (version 4.1, Enterprise Edition).

[2] = Metabolite profiling of urine and feces (% of dose excreted); type: in vivo, human; design: key to % of dose excreted, Feces / % of dose excreted, Urine: ND: not detected; D: detected by MS, but at concentrations too low to accurately quantify by radiochromatography; settings: radiochromatography; for % of dose excreted, Urine: pooled urine 0–72 h
Method: For each subject, urine samples were pooled using an equal percentage by volume of the 0–6, 6–12, 12–24, 24–48 and 48–72 h samples. Pools of the 0–6, 6–12, 12–24, 24–48 and 48-72 h collections were also prepared across subjects and analyzed for metabolite profiling. Samples were mixed and centrifuged prior to the supernatants being transferred to fresh tubes for metabolite profiling analysis.
For each subject, fecal homogenates for metabolite profiling were pooled using an equal percentage by weight of the 0–24, 24–48, 48–72 and 72–96 h samples. Pools of the 0–24, 24-48, 48–72 and 72–96 h collections were also prepared across subjects and analyzed for metabolite profiling. An aliquot of each pool was extracted with acetonitrile; samples were mixed and centrifuged. The supernatant was removed and the pellets re-suspended with 0.1 % formic acid and extracted with acetonitrile. The combined supernatants were evaporated to dryness under a stream of nitrogen and the residue re-suspended in methanol:0.1 % formic acid in water (1:1). Samples were assayed for extraction recovery prior to metabolite profiling. A control fecal homogenate spiked with [^14C]pomalidomide was extracted in a similar manner to determine the extraction efficiency and stability of [^14C]pomalidomide.
as §1, §2

U266 MM cell = assay: Inhibition of MM cell proliferation ([3H]-thymidine incorporation, 3-day culture); type: cell-based; settings: Homo sapiens, U-266
Method: (§3) Metabolites and hydrolysis products of pomalidomide were tested for pharmacological activity in the following three assay systems: (1) inhibition of MM cell proliferation, (2) enhancement of primary human T cell IL-2 production and (3) inhibition of TNF-α production by lipopolysaccharide (LPS)-stimulated human peripheral blood mononuclear cells (PBMC). For all three assay types, compounds were dissolved in 100 % dimethyl sulfoxide (DMSO) and diluted into complete cell culture medium, consisting of Roswell Park Memorial Institute (RPMI)-1640 plus penicillin, streptomycin and L-glutamine (Mediatech, Manassas, VA). The MM cell proliferation cell culture medium contained 10 % fetal bovine serum, while the primary human cell cultures contained 10 % human AB serum (Invitrogen, Brown Deer, WI). The final DMSO concentration in the cell culture media was 0.25 %.
(§4) The human MM cell line OPM-2 was obtained from DSMZ (Braunschweig, Germany), and human MM cell lines U266 B1 and NCI-H929 were obtained from ATCC (Manassas, VA). Inhibition of MM cell proliferation was assessed by the [^3H]-thymidine incorporation assay in a 3-day culture in the presence of compounds in complete medium, as previously described. Primary human T cells were isolated from PBMC by negative selection using the RosetteSep T Cell Enrichment Cocktail (STEMCELL Technologies, Tukwila, WA) according to the manufacturer’s procedures. Costimulation of T cell IL-2 production was measured in a 2-day culture of primary human T cells isolated from healthy donors stimulated with anti-CD3 antibody in the presence of compounds, as previously described. Inhibition of TNF-α production by LPS-stimulated human PBMC was measured in a 1-day culture in the presence of compound, as previously described.

H929 MM cell = assay: as above; type: cell-based; settings: Homo sapiens, NCI-H929
Method: as §3, §4

OPM-2 MM cell = assay: as above; type: cell-based; settings: Homo sapiens
Method: as §3, §4

T cell IL-2 production = assay: Enhancement of primary human T cell IL-2 production (anti-CD3 stimulated, 2-day culture); type: cell-based; settings: 48 h, anti-CD3 stimulated primary human T cells
Method: as §3, §4

PBMC TNF-α production = assay: Inhibition of TNF-α production by LPS-stimulated human PBMC (1-day culture); type: cell-based; settings: 24 h
Method: as §3, §4

[3] = thalidomide, cited from earlier work

Compound	Plasma (% AUC relative to TRA) [1]	AUC/AUCTRA [1]	AUC0–24 [1]	AUC0−∞ [1]	C max [1]	t ½ [1]	T max [1]	% of dose excreted, Urine [2]	IC50 (U266 MM cell)	IC50 (H929 MM cell)	IC50 (OPM-2 MM cell)	% of dose excreted, Feces ([2]; pooled feces 0–96 h)	EC50 (T cell IL-2 production)	IC50 (PBMC TNF-α production)	Percent dose excreted in human urine, Hydrolysis products [3]	Percent dose excreted in human urine, Metabolites (oxidative and conjugative) [3]	Percent dose excreted in human urine, Parent [3]	Percent dose excreted in human urine, Total [3]	Percent dose excreted in human urine, Total ([3]; listed as thalidomide)
Nc1c(O[C@@H]2O[C@H](C(=O)O)[C@@H](O)[C@H](O)[C@H]2O)ccc2c1C(=O)N(C1CCC(=O)NC1=O)C2=O (stereo partly drawn) [Metabolite M12]	4.6%	4.59%	8.90 (20.9) ngEq*h/mL	10.1 (30.2) ngEq*h/mL	0.664 (23.5) ngEq/mL	9.06 (18.7) h	2.5 (1.0–6.0) h	17% and 17.1%	–	–	–	–	–	–	–	–	–	–	–
Nc1c(O[C@@H]2O[C@H](C(=O)O)[C@@H](O)[C@H](O)[C@H]2O)ccc2c1C(=O)N(C1CCC(=O)NC1=O)C2=O (stereo partly drawn) [Metabolite M13]	2.0%	1.99%	3.86 (54.0) ngEq*h/mL	5.99 (48.9) ngEq*h/mL	0.362 (31.7) ngEq/mL	9.97 (43.6) h	3.25 (1.0–6.0) h	12% and 12.4%	–	–	–	–	–	–	–	–	–	–	–
CC(=O)Nc1cccc2c1C(=O)N(C1CCC(=O)NC1=O)C2=O (stereo not drawn) [Metabolite M18, N-acetyl pomalidomide]	D	–	–	–	–	–	–	0.1%	> 1000 nM	> 1000 nM	> 1000 nM	D	> 10000 nM	> 10000 nM	–	–	–	–	–
Nc1cccc2c1C(=O)N(C1CC(O)C(=O)NC1=O)C2=O (stereo not drawn) [Metabolite M19]	D	–	–	–	–	–	–	D	> 1000 nM	> 1000 nM	> 1000 nM	–	1500 nM	2300 nM	–	–	–	–	–
O=C1CCC(N2C(=O)c3ccccc3C2=O)C(=O)N1 (stereo not drawn) [Thalidomide, thalidomide]	–	–	–	–	–	–	–	–	–	–	–	–	–	–	87.2%	Trace	1.8%	91.9%	> 90%

Reference: article PMC3556473, “Absorption, metabolism and excretion of [^14C]pomalidomide in humans following oral administration” (Cancer Chemotherapy and Pharmacology, 2012)
